Experimental findings from PubChem BioAssay (NCI) are described below.

What all share (assay): DTP human tumour cell line panel, 48 h
The subject of assay [1] is NCI-H226 lung.
Assay [2] deals with KM12 colon.
For assay [3], the system named is MALME-3M melanoma.
Assay [4] deals with HCC-2998 colon.
The test system of assay [5] is SK-MEL-28 melanoma.
The test system of assay [6] is OVCAR-5 ovarian.
The subject of assay [7] is SW-620 colon.
For assay [8], the system named is OVCAR-8 ovarian.
For assay [9], the system named is MOLT-4 leukemia.
The subject of assay [10] is RXF 393 renal.
Assay [11] concerns ACHN renal.
Assay [12] has as its system CAKI-1 renal.
Assay [13] deals with DU-145 prostate.
For assay [14], the system named is HS 578T breast.
The subject of assay [15] is CCRF-CEM leukemia.
Assay [16] relates to M14 melanoma.
The test system of assay [17] is MCF7 breast.
Assay [18] concerns T-47D breast.
In assay [19] the test system is BT-549 breast.

Molecules are shown by their SMILES.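 Cultured in 96-well plates, cells were exposed to test compound for 48 hours across five concentrations. TGI is the concentration that stops growth completely.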

For `CCOC(=O)C1S/C(=N\C(=N)N[N+](=O)[O-])N=C1C` (stereo not drawn), the TGI in assay [1], in [2], in assay [3], in assay [4], in assay [5] and in assay [6] was more than 100 µM each time. Moreover, the TGI in assay [7], in assay [8], in assay [9], in assay [10] and in assay [11] was more than 100 µM in each case.
`O=C1NC2c3c(I)sc(I)c3C(O)C2O1` (stereo not drawn): the TGI in [1], in assay [2], in [3], in assay [12], in assay [13] and in [14] was more than 100 µM in each case. Besides, the TGI in assay [4], in assay [5], in assay [15], in assay [6], in assay [7] and in assay [8] was more than 100 µM each time. Also, the TGI in [16], in assay [9], in [17], in [10], in assay [18] and in assay [11] was more than 100 µM in each case.
As for `S=C1NC2=C(CSC/C2=C\c2cccc(Br)c2)C(c2cccc(Br)c2)N1` (stereo not drawn), the TGI in assay [1], in assay [2], in assay [3], in assay [12], in assay [13] and in [14] was more than 100 µM throughout. Besides, the TGI in assay [4], in assay [5], in [15], in assay [6], in assay [7] and in [8] was more than 100 µM each time. Moreover, the TGI in assay [16], in [9], in assay [17], in [10], in assay [18] and in [11] was more than 100 µM in each case.
For the compound `CSC1=N/C(=C\c2ccc(C)cc2)C(=O)N1CN1CCCCC1`, the TGI in assay [1], in assay [2], in [3], in assay [13], in assay [14] and in [5] was more than 100 µM in each case. Also, the TGI in [6], in assay [7], in [8], in assay [16], in assay [9] and in [17] was more than 100 µM in each case. The same compound gave a TGI in assay [11] of more than 100 µM.
As to `Cc1nc(C)c(C(=O)NNC(=O)C[N+](C)(C)C)cc1C(=O)NNC(=O)C[N+](C)(C)C`, the TGI in assay [1], in [2], in assay [12], in assay [13], in assay [4] and in assay [5] was more than 100 µM in each case. Further, the TGI in assay [6], in assay [7], in assay [8], in assay [16], in [17] and in assay [10] was more than 100 µM in each case. Besides, the TGI in [19], in assay [18] and in assay [11] was more than 100 µM throughout.
For `CCCNc1ncnc2c1ncn2C`, the TGI in assay [1], in assay [2], in assay [3], in [12], in assay [13] and in [4] was more than 100 µM each time. For the same compound, the TGI in [5], in assay [15], in assay [7], in assay [8], in assay [16] and in assay [9] was more than 100 µM each time. The TGI in assay [17], in assay [10], in [18] and in assay [11] was more than 100 µM each time.
On to `C=C1C(=O)CC2C1CC(=O)/C(C)=C/CCC(C)(O)C2O` (stereo not drawn), for which the TGI in assay [1] was 61.6 µM; in assay [2], 29.8 µM; in [3], 3.01 µM; in assay [12], 3.37 µM; in assay [13], 19.7 µM; in assay [14], 26.5 µM. Also, the TGI in assay [4] was 17.1 µM; in assay [5], 33.3 µM; in assay [15], 13.8 µM; in [6] it was 27.7 µM; in assay [7], more than 33.7 µM; in [8], 11.6 µM. For the same compound, the TGI in assay [16] is more than 31.2 µM; in assay [9] it was 6.2 µM; in assay [17], 8.38 µM; in [10] it was 11.6 µM; in assay [18], 3.96 µM; in assay [11], 4.92 µM.
Consider `COc1cc(O)c2c(c1)C(=O)c1cc3c(c(O)c1C2=O)C(OC1OC(C)C(OC)C(O)C1OC)C(OC)C(C)(O)C3=O` (stereo not drawn), for which the TGI came out at 9.54 µM in assay [1]; 15.9 µM in [2]; 5.85 µM in assay [3]; 11 µM in assay [12]; 33.3 µM in [14]; 17.4 µM in [4]. The TGI in assay [5] came to 22.1 µM; in assay [15], 41.6 µM; in assay [6] it was 33.6 µM; in [7] it was 18.1 µM; in assay [8], 10.8 µM; in [16], 9.61 µM. For the same compound, the TGI in assay [9] was found to be 12.2 µM; in [17], 17.1 µM; in assay [19] it was 31.6 µM; in [11], 12.8 µM.
Turning to `COC(C)(C)C1(O)CC[C@@H](C)CC1=O` (stereo partly drawn), the TGI in assay [2], in assay [3], in assay [12], in assay [13], in assay [14] and in assay [4] was more than 100 µM in each case. The TGI in [5], in [6], in [7], in assay [8], in assay [16] and in [9] was more than 100 µM throughout. Besides, the TGI in assay [17], in [10], in assay [19] and in assay [11] was more than 100 µM in each case.
Regarding `S=c1c2cn[nH]c2nc2scc(-c3ccc(Cl)cc3)n12`, the TGI in assay [2] came to 28.8 µM; in assay [3], 49.6 µM; in [12], 24.6 µM; in assay [14], 38.8 µM; in [4], 32.5 µM; in assay [5] it was 46.6 µM. Further, the concentration for total growth inhibition (TGI) in [15] stood at 50.9 µM; in assay [6], 29.4 µM; in [7], 22.3 µM; in assay [8] it was 41.7 µM; in [16], 36.3 µM; in assay [9] it was 60.1 µM. Also, the TGI in assay [17] was 36.3 µM; in assay [10] it was 17.5 µM; in [19] it was 27.5 µM; in assay [11] it was 27 µM.
Take `COc1cc2c(cc1OC)C1C3CCCCC3CCN1CC2` (stereo not drawn): the TGI in assay [1], in assay [2], in assay [3], in [12], in [13] and in [14] was more than 100 µM each time. Also, the TGI in assay [4], in assay [5], in assay [15], in assay [6], in assay [7] and in [8] was more than 100 µM throughout. The TGI in assay [9], in assay [17], in assay [10], in assay [18] and in assay [11] was more than 100 µM throughout.
For `NS(=O)(=O)c1ccc(NC(=S)/N=C/C2=C(O)c3ccccc3C2=O)cc1`, the TGI in assay [2], in assay [3], in assay [12], in assay [13], in [14] and in [4] was more than 100 µM throughout. The TGI in assay [5], in [15], in assay [6], in assay [7], in assay [16] and in assay [9] was more than 100 µM throughout. For the same compound, the TGI in assay [17], in assay [10], in assay [18] and in [11] was more than 100 µM in each case.
As for `O=P(O)(O)C(N=C(Nc1ccccc1)Nc1ccccc1)P(=O)(O)O`, the TGI in assay [1], in [2], in assay [3], in assay [12], in [13] and in [14] was more than 100 µM each time. For the same compound, the TGI in assay [4], in assay [6], in assay [8], in assay [16], in [17] and in assay [10] was more than 100 µM throughout. The TGI in assay [19] and in [11] was more than 100 µM each time.
Turning to `O=C1C=C/C(=N\N=C(c2ccccc2)c2ccccc2)O1`, the TGI in assay [2], in assay [3], in [12], in [13], in assay [4] and in [5] was more than 10 µM each time. For the same compound, the TGI in assay [15], in assay [7], in assay [8], in assay [16], in assay [9] and in [17] was more than 10 µM in each case. Also, the concentration for total growth inhibition (TGI) in assay [10] and in assay [18] was more than 10 µM in each case.
On to `COc1ccc(C2OC(c3ccncc3)=NN2C)cc1F` (stereo not drawn), for which the TGI in assay [1], in [2], in assay [3], in assay [12], in assay [13] and in [14] was more than 100 µM in each case. In addition, the TGI in [4], in assay [5], in assay [15], in assay [6], in [7] and in [8] was more than 100 µM throughout. The TGI in assay [16], in [9], in [17], in assay [10], in assay [18] and in assay [11] was more than 100 µM in each case.
With `CCOc1cc(/C=C2/C(C)=NN(c3cccc(Cl)c3)/C2=N/c2nc3ccccc3s2)ccc1O`, the TGI was 68 µM in assay [1]; more than 100 µM in [13]; 68.6 µM in [14]; 35.6 µM in [4]; more than 100 µM in [5]; more than 100 µM in assay [15]. Further, the TGI in [6] is more than 100 µM; in assay [7] it was more than 100 µM; in [8] it was more than 100 µM; in assay [16] it was 75.5 µM; in assay [9], more than 100 µM; in assay [17] it was 81.8 µM. Besides, the results for the TGI in [10], in [18] and in assay [11] were more than 100 µM, more than 100 µM and 63.6 µM, respectively.
In the case of `C=CCn1c(=O)c(C(=O)Nc2nc(C34CC5CC(CC(C5)C3)C4)cs2)c(O)c2ccccc21`, the TGI in assay [1], in assay [2], in assay [3], in [12], in assay [13] and in [14] was more than 100 µM in each case. Moreover, the TGI in [4], in assay [5], in assay [15], in [6], in [7] and in assay [8] was more than 100 µM in each case. Besides, the TGI in [9], in [17], in assay [10], in assay [19] and in assay [11] was more than 100 µM each time.

A word on the TGI: it is the concentration at which net growth stops. Lower therefore signals greater sensitivity of the cells.
